# Measured values published in patent publication US4714699A, “2-tolylmorpholine derivatives and pharmaceutical compositions” (Societe Anonyme Dite: Laboratoire L. Lafon, priority 1983, dated 1987).
# Entries after “also recorded” stand apart in the source; their conditions may differ.
# What was measured:
# [1] = cardiovascular study in dogs; type: in vivo
# [2] = neuropsychopharmacological study, overall findings; type: in vivo, mice, rats; conditions: for sedative effects: weak doses where stated
# Experimental: (§1) In the following tests, CRL 40 875, in solution in distilled water, was administered intraperitoneally in a volume of 20 ml/kg to male mice and 5 ml/kg to male rats.
# (§2) In the following tests, CRL 40 897, in solution in distilled water (pH 4), was administered intraperitoneally in a volume of 20 ml/kg to male mice and in a volume of 5 ml/kg to male rats, the procedures being those given above for CRL 40 875.
# (§3) In the tests undertaken, CRL 40 912, in solution in distilled water (pH 4.5), was administered intraperitoneally in a volume of 20 ml/kg to male mice and in a volume of 5 ml/kg to male rats, the procedures being those given above for CRL 40 875.
# (§4) The toxicological and neuropsychopharmacological studies undertaken in accordance with the procedures described above for CRL 40 875 enabled the following observations to be made: […]
# [3] = overall behavior and reactivities in mice; type: in vivo, male mice; conditions: 64 mg/kg i.p.
# Experimental: as §1
# Groups of three mice are observed before and then 15 minutes, 30 minutes, 1 hour, 2 hours, 3 hours and 24 hours after the administration of CRL 40 875.
# as §2, §4
# [4] = pretoxicity (LD-O, maximum non-lethal dose); type: in vivo, male mice; conditions: intraperitoneally, male mice
# Experimental: as §1, §2, §3, §4
# [5] = action on the intergroup aggressiveness; type: in vivo, male mice; conditions: i.p., mice
# Experimental: as §1
# After they have stayed for 3 weeks in the two halves of a cage divided by an opaque partition, groups of 3 mice receive CRL 40 875. Half an hour later, the two groups from the same cage are brought together by removal of the partition, and the number of fights which occur in 10 minutes is noted.
# as §2, §3
# [6] = clinical trials, treatment of depressions; type: in vivo; conditions: man
# Description: In clinical trials, good results were obtained on man with CRL 40 875 (Example 1), CRL 40 912 (Example 2) and CRL 40 897 (Example 3) in the treatment of depressions.
# [7] = interaction with amphetamine; type: in vivo, male rats; conditions: i.p.; 2 mg/kg amphetamine; rats
# Experimental: as §1, §2, §3
# [8] = interaction with reserpine; type: in vivo, male mice; conditions: i.p.
# Experimental: as §1
# Four hours after the intraperitoneal injection of 2.5 mg/kg of reserpine, groups of 6 mice receive CRL 40 875. The effects on the temperature and ptosis are observed.
# as §2, §3
# [9] = cardiovascular study in rats; type: in vivo; conditions: wake rats
# α-adrenergic = α-adrenergic stimulation; conditions: in vivo; hydrochloride
# [10] = asphyxiant anoxia (gallamine triiodoethylate); type: in vivo, male mice; conditions: i.p., mice
# Experimental: as §1
# Groups of 20 mice receive CRL 40 875 half an hour before the intraperitoneal administration of 32 mg/kg of gallamine triidoethylate (which is a reference curarizing agent).
# as §2, §3
# [11] = interaction with oxotremorine; type: in vivo, male mice; conditions: strong dose, i.p.
# Experimental: as §1
# CRL 40 875 is administered to groups of 6 mice half an hour before the intraperitoneal injection of 0.5 mg/kg of oxotremorine.
# as §2, §3
# [12] = motility reduced by habituation to the enclosure; type: in vivo, male mice; conditions: i.p.
# Experimental: as §1
# After they have stayed in the actimeters for 18 hours, the mice (6 per dose, 12 control animals) receive CRL 40 875. They are immediately returned to their respective enclosures and, half an hour later, their motility is recorded for 30 minutes.
# as §2, §3
# [13] = interaction with apomorphine in mice; type: in vivo, male mice; conditions: strong dose, i.p.
# Experimental: as §1
# Groups of 6 mice receive CRL 40 875 0.5 hour before the subcutaneous injection of 1 or 16 mg/kg of apomorphine.
# as §2, §3
# [14] = anesthetized dogs, intraduodenal (CRL 40 903: then intravenous)
# [15] = intraduodenal, anesthetized dogs
structure (smiles),measurement,setting,value
"Cc1ccccc1C1CN(C(C)(C)C)CCO1 (stereo not drawn) [CRL 40 910, 2-o-tolyl-4-tert.-butylmorpholine]",femoral and vertebral flow rates,"[1]; 0.5 mg/kg intraduodenally, anesthetized dogs",significantly increases the femoral and vertebral flow rates
same,effect of propanolol on the increase in femoral flow rate,"[1]; anesthetized dogs, intraduodenal",not totally inhibited by propanolol
same,dose as from which tachycardia appears,[1]; [14],1 mg/kg
same,effect on the hypertension induced by noradrenaline,[1]; [14],reduces the hypertension induced by noradrenaline
same,effect on the hypotension / effects of isoprenaline,[1]; [14],does not modify the effects of isoprenaline
same,vasodilator property,"[1]; dog, in vivo",particularly interesting as vasodilators
same,effect on respiration,[1]; [15],stimulates respiration in dogs
same,rectal and skin temperatures,[1]; [15],increase progressively
same,"tachycardia, degree",[1]; [15],remains weak
same,venous pressure,[1]; [15],"increase progressively, as does the venous pressure"
same,effect of propanolol on the effects on heart beat and vertebral flow rate,"[1]; propanolol 1 mg/kg intravenously, anesthetized dogs",antagonized by propanolol
same,sedative effects,[2],sedative effects
same,hypothermia,[3]; male mice,moderate hypothermia
same,duration of hypothermia,[3]; mice,0.5 h
same,LD-O (maximum non-lethal dose),[4],greater than 128 mg/kg
"Cc1cccc(C2CN(C)CCO2)c1.Cl (stereo not drawn) [CRL 40 912, 2-m-tolyl-4-methylmorpholine hydrochloride]",effect on aggressiveness / number of fights,[5],reduction of aggressiveness
same,results in the treatment of depressions,[6],good results
same,effect on blood pressure,"[1]; 1 mg/kg i.p., anesthetized dogs",hypertensive agent
same,effect on hypertensive action,"[1]; 5 mg/kg i.p., anesthetized dogs",this effect decreases
same,dose as from which bradycardia is caused,"[1]; i.p., anesthetized dogs",≥ 5 mg/kg
same,effect on stereotypies induced by amphetamine,[7],does not reduce the intensity of the stereotypies induced by amphetamine
same,effect on the ptosis induced by reserpine,[8]; mice,significant antagonism of the ptosis induced by reserpine
same,effect on the hypothermic effects of reserpine,[8]; weaker dose,opposes those of reserpine
same,bradycardia,[9],bradycardia is of short duration
same,mean blood pressure,[9],no action on the mean blood pressure
same,variation of sedative effects with dose,[2]; in vivo,"increase continuously with the dose administered, up to a maximum value, and then decrease continuously and progressively as the dose increases"
same,antidepressant effects,"[2]; strong doses, hydrochloride",antidepressant at a strong dose; also recorded: antidepressants at strong doses
same,sedative effects,[2]; hydrochloride,"sedative effects (hypomotility, hypothermia) comparable to those of α-adrenergic blocking substances or to clonidine; also recorded: acts as a sedative at a weak dose; also recorded: sedative effects (hypomotility, hypothermia, reduction of intergroup aggressiveness"
same,α-adrenergic stimulant effect,α-adrenergic,"effect of the α-stimulant type; also recorded: very distinct peripheral α-adrenergic stimulant action (piloerection, exophthalmos, significant antagonism of the ptosis induced by reserpine); also recorded: stimulant effects, especially of the α-adrenergic type"
same,time taken for convulsions and death to occur following asphyxiant anoxia,[10],delay in the time taken for convulsions and death to occur
same,effect on the temperature drop caused by oxotremorine,[11],opposes the hypothermic effects of apomorphine and oxotremorine
same,resumption in the activity of mice accustomed to their enclosure,[12],does not cause a resumption in the motor activity of mice accustomed to their enclosure
same,effect on the hypothermic effects of apomorphine,[13],opposes the hypothermic effects of apomorphine
